Reference: ChEMBL document CHEMBL1141300, “Putrescine bisamides from Aglaia gigantea” (J Nat Prod, 2007)
The source made the active and inactive calls. No cut-off for these calls is given here.

System: Spodoptera littoralis
Experiment: Insecticidal activity against Spodoptera littoralis after 6 days
Assay type: functional, organism-based

| SMILES | Activity |
| --- | --- |
| CC1=CC(O)N(CCCCNC(=O)/C=C/c2ccccc2)C1=O (configuration not stated) | inactive |
| C=C(C(=O)NCCCCNC(=O)/C=C/c1ccccc1)[C@@H](O)CO | inactive |
